Test results published in patent publication EP2712863B1, “Novel inhibitors of bacterial biofilms and related methods” (Sequoia Sciences, Inc., priority 2012, dated 2014).
In brackets after ≈: the same amount, converted by molar mass. Like-named read-outs stand apart in the source and are kept apart here.

What was measured:
P. aeruginosa = assay: Biofilm growth assay (spreading biofilm on semi-solid agar); assay type: cell-based; details: for IC85: Pseudomonas aeruginosa
Description: (§1) "Biofilm Growth Assay" refers to an assay performed on semi-solid agar surface where the bacteria collectively move out from an inoculation point. To those skilled in the art, the act of bacteria collectively moving out from an inoculation point on a semi-solid surface may be referred to as swarming or a spreading biofilm. (Anderson, et al Microbiology, 2003, 149, 37-46; Daniels, et al. FEMS Microbiology Reviews, 2004, 28, 261-289). The procedure to perform this assay is described in detail in the Examples. This type of surface motility by bacteria has been reported in the literature by those skilled in the art.
(§2) The biofilm growth assay was carried out to measure swarming or biofilm spreading on semi-solid agar media in round plates (for example, 100 × 15 mm), also referred to as Petri dishes. For E. coli, the plates contained LB medium with 0.6% agar and 0.5% glucose. P. aeruginosa plates were made with M8 agar supplemented with 0.2% glucose, 100 µM CaCl2, 1 mM MgSO4, and 0.5% Casamino acids. The agar plates of this assay consisted of 0.4% to 0.7% agar (Bacto or Noble agar), although other media may also be used as described in the literature and known to those skilled in the art. Test compounds at the desired concentration were added to the cooled, autoclaved media. Portions of the media were then poured into the plates (20 mL/plate), and the plates allowed to dry at room temperature for approximately 3 to 4 hours. Alternatively, however, plates may be dried in a laminar flow hood for approximately fifteen to twenty minutes. Overnight cultures were grown in a 37°C shaker in LB (E. coli) or TSB (P. aeruginosa). Plates were inoculated by placing 5 µL of the appropriate overnight culture in the centers of the plates. The plates then were incubated overnight at 37°C. The area of the zone of spreading bacteria was then measured and replicates are averaged. Percent inhibition was calculated as 100 × (area without compound - area with compound)/(area without compound). An active compound was considered that which reduces the area of the spreading biofilm compared to negative controls by greater than or equal to 85%. The values shown in Table 1 are the concentrations of compounds (µg/ml) tested in the biofilm growth assay that reduce the area of the spreading biofilm compared to negative controls by greater than or equal to 85% unless noted differently in Table 1. A > ("greater than" symbol) as used in Table 1 is well understood to those skilled in the art as an indication that the listed concentration was not effective at this concentration.
(§3) All of the compounds shown in Tables 2, 3, 4, and 5, below, were prepared semi-synthetically from oleanolic acid, except for Compounds 2 and 3. Compound 2 was prepared from ursolic acid. Compound 3 was prepared from hederagenin, but could also be prepared from an oleanolic acid analog with a hydroxyl at C23 or C24. These compounds were tested in the spreading biofilm assay according to the methods detailed in Example I, above. The values shown in Tables 2, 3, 4, and 5 are the concentrations of compounds tested in the biofilm growth assay that reduce the area of the spreading biofilm compared to negative controls by greater than or equal to 85%. Table 2. Compound 1 and its Analogs and their inhibitory concentrations in the biofilm growth assay as detailed in Example I, above

E. coli = assay: as above; assay type: cell-based; details: Escherichia coli, read-out: E. coli
Description: as §1, §2, §3

[1] = Table 4, concentration that reduces the area of the spreading biofilm by >= 85%, read-out: P. aeruginosa
[2] = Table 4, concentration that reduces the area of the spreading biofilm by >= 85%
[3] = Table 3, concentration that reduces the area of the spreading biofilm by >= 85%, read-out: P. aeruginosa
[4] = Table 3, concentration that reduces the area of the spreading biofilm by >= 85%
[5] = Table 1, concentration that reduces the area of the spreading biofilm vs negative controls by >= 85%, > means not effective at this concentration, read-out: P. aeruginosa
[6] = Table 1, concentration that reduces the area of the spreading biofilm vs negative controls by >= 85%, > means not effective at this concentration

CC1(C)CC[C@]2(C(=O)NO)CC[C@]3(C)C(=CCC4[C@@]5(C)Cc6c(n[nH]c6N)C(C)(C)C5CC[C@]43C)C2C1 (stereo partly drawn) [Compound 65, (4aS,6aS,6bR,13aR)-12-Amino-N-hydroxy-2,2,6a,6b,9,9,13a-heptamethyl-2,3,4,4a,5,6,6a,6b,7,8,8a,9,11,13,13a,13b,14,15b-octadecahydro-1H-chryseno[1,2-f]indazole-4a-carboxamide]
IC85 (P. aeruginosa; [1]): 0.25 µg/mL (≈ 0.491 µM)
IC85 (E. coli; [2]): 0.25 µg/mL (≈ 0.491 µM)

CC1(C)CC[C@]2(C(=O)O)CC[C@]3(C)C(=C(c4ccc(N)nc4)CC4[C@@]5(C)Cc6c(n[nH]c6N)C(C)(C)[C@@H]5CC[C@]43C)[C@@H]2C1 (stereo partly drawn) [Compound 41, (4aS,6aS,6bR,8aR,13aR,15bS)-12-Amino-15-(6-aminopyridin-3-yl)-2,2,6a,6b,9,9,13a-heptamethyl-2,3,4,4a,5,6,6a,6b,7,8,8a,9,11,13,13a,13b,14,15b-octadecahydro-1H-chryseno[1,2-f]indazole-4a-carboxylic acid]
IC85 (P. aeruginosa; [3]): 1 µg/mL (≈ 1.71 µM)
IC85 (E. coli; [4]): 2 µg/mL (≈ 3.41 µM)

CC1(C)CC[C@]2(C(=O)O)CC[C@]3(C)C(=C(c4ccc(N5CCOCC5)nc4)CC4[C@@]5(C)Cc6c(n[nH]c6N)C(C)(C)[C@@H]5CC[C@]43C)[C@@H]2C1 (stereo partly drawn) [Compound 54, (4aS,6aS,6bR,8aR,13aR,15bS)-12-Amino-2,2,6a,6b,9,9,13a-heptamethyl-15-(6-morpholinopyridin-3-yl)-2,3,4,4a,5,6,6a,6b,7,8,8a,9,11,13,13a,13b,14,15b-octadecahydro-1H-chryseno[1,2-f]indazole-4a-carboxylic acid]
IC85 (P. aeruginosa; [3]): 1 µg/mL (≈ 1.52 µM)
IC85 (E. coli; [4]): 2 µg/mL (≈ 3.05 µM)

CC1(C)CC[C@]2(c3nnc(O)s3)CC[C@]3(C)C(=CCC4[C@@]5(C)Cc6c(n[nH]c6N)C(C)(C)C5CC[C@]43C)C2C1 (stereo partly drawn) [Compound 78, 5-((4aS,6aS,6bR,13aR)-12-Amino-2,2,6a,6b,9,9,13a-heptamethyl-2,3,4,4a,5,6,6a,6b,7,8,8a,9,11,13,13a,13b,14,15b-octadecahydro-1H-chryseno[1,2-f]indazol-4a-yl)-1,3,4-thiadiazol-2-ol]
IC85 (P. aeruginosa; [1]): > 1 µg/mL
IC85 (E. coli; [2]): 1 µg/mL (≈ 1.82 µM)

CC1(C)CC[C@]2(C(=O)O)CC[C@]3(C)C(=C(Br)CC4[C@@]5(C)Cc6c(n[nH]c6N)C(C)(C)[C@@H]5CC[C@]43C)[C@@H]2C1 (stereo partly drawn) [Compound 25, (4aS,6aS,6bR,8aR,13aR,15bR)-12-Amino-15-bromo-2,2,6a,6b,9,9,13a-heptamethyl-2,3,4,4a,5,6,6a,6b,7,8,8a,9,11,13,13a,13b,14,15b-octadecahydro-1H-chryseno[1,2-f]indazole-4a-carboxylic acid]
IC85 (P. aeruginosa; [3]): 0.5 µg/mL (≈ 0.873 µM)
IC85 (E. coli; [4]): > 2 µg/mL

C[C@H]1[C@H](C)CC[C@]2(CO)CC[C@]3(C)C(=CC[C@@H]4[C@@]5(C)CC[C@H](O)C(C)(C)[C@@H]5CC[C@]43C)[C@H]12 [Uvaol, reference compound]
IC85 (P. aeruginosa; [5]): > 128 µg/mL
IC85 (E. coli; [6]): > 8 µg/mL

CC1(C)CC[C@]2(C(=O)O)CC[C@]3(C)C(=CC[C@@H]4[C@@]5(C)C[C@@H](O)[C@H](O)C(C)(C)[C@@H]5CC[C@]43C)[C@@H]2C1 [Maslinic acid, reference compound]
IC85 (P. aeruginosa; read-out: P. aeruginosa (µg/ml)): 4 µg/mL (≈ 8.46 µM)

CC1(C)CC[C@]2(C(=O)O)CC[C@]3(C)C(=C(c4cc[nH]c4)CC4[C@@]5(C)Cc6c(n[nH]c6N)C(C)(C)[C@@H]5CC[C@]43C)[C@@H]2C1 (stereo partly drawn) [Compound 6, (4aS,6aS,6bR,8aR,13aR,15bS)-12-Amino-2,2,6a,6b,9,9,13a-heptamethyl-15-(1H-pyrrol-3-yl)-2,3,4,4a,5,6,6a,6b,7,8,8a,9,11,13,13a,13b,14,15b-octadecahydro-1H-chryseno[1,2-f]indazole-4a-carboxylic acid]
IC85 (E. coli; Table 2, concentration that reduces the area of the spreading biofilm by >= 85%): 0.25 µg/mL (≈ 0.447 µM)

C[C@H]1[C@H](C)CC[C@]2(C)CC[C@]3(C)C(=CC[C@@H]4[C@@]5(C)CC[C@H](O)C(C)(C)[C@@H]5CC[C@]43C)[C@H]12 [alpha-Amyrin, reference compound]
P. aeruginosa (P. aeruginosa; [6]): > 32 µg/mL

C[C@H]1[C@H](C)CC[C@]2(C(=O)O)CC[C@]3(C)C(=CC[C@@H]4[C@@]5(C)C[C@@H](O)[C@H](O)C(C)(C)[C@@H]5CC[C@]43C)[C@H]12 [Corosolic acid, reference compound]
IC85 (P. aeruginosa; [5]): 4 µg/mL (≈ 8.46 µM)
